# Laboratory results reported in ChEMBL document CHEMBL1150748, “Isolation of the antimicrobial alkaloid stemmadenine from Iraqi Rhazya stricta” (1988).
# How the values were obtained:
# Type in all cases: functional
# Candida albicans = experiment: Antimicrobial activity against Candida albicans ATCC 10231
# Escherichia coli = experiment: Antimicrobial activity against Escherichia coli ATCC 8739
# Pseudomonas aeruginosa = experiment: Antimicrobial activity against Pseudomonas aeruginosa ATCC 9027
# Staphylococcus aureus = experiment: Antimicrobial activity against Staphylococcus aureus ATCC 6538
Compound,MIC (Candida albicans) [mg/L],MIC (Escherichia coli) [mg/L],MIC (Pseudomonas aeruginosa) [mg/L],MIC (Staphylococcus aureus) [mg/L]
C/C=C1/CN2CCc3c([nH]c4ccccc34)[C@@](CO)(C(=O)OC)[C@@H]1CC2 [STEMMADENINE],37.5,1.25,7.5,5
CCCCCCCCCCCCC[N+](C)(C)Cc1ccccc1.[Cl-] [BENZALKONIUM CHLORIDE],1.8,2.8,8,0.32
CC(=O)O.CC(=O)O.NC(=N\CCCCCC/N=C(N)/N=C(\N)Nc1ccc(Cl)cc1)/N=C(\N)Nc1ccc(Cl)cc1 [CHLORHEXIDINE DIACETATE],4.5,0.4,1.5,0.2
THIMEROSAL,0.1,0.6,1.5,0.2
